Experimental data as given in patent US11058707B2, “Methods for treating ischemic heart disease by targeting TRPV4” (Northeast Ohio Medical University, priority 2018, dated 2021).

What was measured:
WT mice subjected to MI = test: Myocardial infarction (LAD ligation) in WT mice treated orally with TRPV4 antagonist; echocardiography and histology; format: in vivo
Method: WT mice were subjected to MI by ligating LAD. MI mice were then given orally a specific TRPV4 antagonist, GSK2193874 (GSK2) (10 mg/Kg/day) or vehicle (0.01% DMSO/water).
Orally active TRPV4 antagonist GSK2193874 was given immediately after MI surgery and followed for 5 weeks.

[1] = test system: human ventricular fibroblasts; test: TGF-b1-induced differentiation of human ventricular fibroblasts to myofibroblasts (immunofluorescence, α-SMA); format: cell-based; conditions: AB1+TGFβ1 vs TGFβ1; immunofluorescence actin/α-SMA/DAPI (FIG. 5A-5C)
[2] = given immediately after MI surgery, followed for 5 weeks, vs WT or vehicle treated mice

Row | SMILES | cardiac fibrosis (Masson's trichrome staining) at the infarct zone and remote zone (WT mice subjected to MI; GSK2 treated-MI hearts vs Vehicle treated-MI hearts (FIG. 16)) | ejection fraction (WT mice subjected to MI; [2]) | fractional shortening (WT mice subjected to MI; [2]) | cardiac function: ejection fraction (WT mice subjected to MI; post-MI WT mice, 10 mg/Kg/day orally vs vehicle (0.01% DMSO/water), echocardiography (FIG. 11A)) | cardiac function: fractional shortening (WT mice subjected to MI; post-MI WT mice, 10 mg/Kg/day orally vs vehicle (0.01% DMSO/water), echocardiography (FIG. 11B)) | TGF-b1-induced differentiation of human ventricular fibroblasts [1]
1 | O=C(NC1(c2ccccc2)CC1)c1c(CN2CCC(N3CCCCC3)CC2)c(-c2cccc(C(F)(F)F)c2)nc2cc(Br)ccc12 [GSK2193874, 3-([1,4′-bipiperidin]-1′-ylmethyl)-7-bromo-N-(1-phenylcyclopropyl)-2-[3-(trifluoromethyl)phenyl]-4-quinolinecarboxamide] | significantly reduced | preserved | preserved | preserved | preserved | 
2 | CC(C)NCCN(C(C)C)S(=O)(=O)c1ccc(Cl)cc1Cl [AB159908, 2,4-dichloro-N-isopropyl-N-(2-isopropylaminoethyl)benzenesulfonamide] |  |  |  |  |  | attenuation
